This note sets out measurements from publication PMC6261607, “Novel high–throughput myofibroblast assays identify agonists with therapeutic potential in pulmonary fibrosis that act via EP2 and EP4 receptors” (PLoS ONE, 2018).

Read-outs that look alike come from different tables or passages of the source.

Assay [1] concerns normal human lung fibroblasts (NHLF). Briefly: Phenotypic high-content assay (HCA) of TGF–β1–induced fibroblast–to–myofibroblast differentiation. The following applies: NHLF, 5 ng/ml TGF–β1 for 48 h, compound added with TGF–β1; mean ± SD; read-out: HCA IC50. In kind it is cell-based. The essentials: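 NHLF starved 24 h in serum-free basal medium with 0.1% BSA, then given compounds together with 5 ng/ml TGF-β1 for 48 h (0.6% DMSO). Methanol-fixed cells imaged for DAPI, α-SMA and FN; an SVM trained on ±TGF-β1 controls classified each cell, giving per-well % myofibroblast differentiation and nuclear counts.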

For assay [2] the test system is unchanged. Briefly: Nuclear count in the HCA, standard assay. In kind it is cell-based. The following applies: standard HCA, NHLF, 5 ng/ml TGF–β1, 48 h; read-out: Nuclear count IC50. Here is the method: The plate was washed 3 times with starvation medium, e.g. fibroblast basal medium (FBM, Lonza) supplemented with 0.1% faf BSA, 100 units / ml of penicillin and 100 μg / ml of streptomycin and 250 ng / ml amphotericin B, and then starved for 24 h in 30 μl volume. NHLF were differentiated into myofibroblasts by incubation with 5 ng / ml TGF–β1 (from a stock of 20 μg / ml in 4 mM HCl, 1 mg / ml BSA) for 48 h. Compounds were prepared as 5x stocks in starvation medium and added to the starved cells to a final 1x concentration concomitant with TGF–β1 addition. The final DMSO concentration in the assay was 0.6% in all wells. 48 h after TGF–β1 addition, the medium was removed and the cells were fixed in methanol for 10 min at room temperature (RT). After fixation, cells were washed 3 times with 1 x PBS and either stored at 4°C for up to 3 days or further processed. […] Images were acquired on the Opera Phenix confocal high–content screening system (Perkin Elmer) using the 20–x water immersion lens.
DAPI stained nuclei were used to identify cells. α–SMA and FN regions were then identified and mapped to the corresponding nuclei for background correction, cell segmentation and cell feature computation to identify, classify and weigh over 400 features per cell. The computed features (S1 Table) comprise, but are not limited to, granularity, intensity, texture, area, shape and solidity of a cell in both α–SMA–and FN–expressing regions. The 0% compound effect (5 ng / ml TGF–β1) and the 100% compound effect (0 ng / ml TGF–β1) controls, were used to train and validate a support vector machine (SVM), a supervised learning model with associated learning algorithm that, once successfully validated, was applied to every cell in every well of the assayed microtiter plate. The SVM allowed autonomous weighting and classification of the characteristics and thus enabled the classifier to decide which characteristics were most relevant for the differentiation of the cell types. […] The classification of each cell was aggregated to a cell type ratio per well, represented as the computed percentage effect value per well indicative of the degree of myofibroblast differentiation. E.g. 100% equals complete myofibroblast differentiation, 0% indicates a pure fibroblast population without any signs of differentiation.

Assay [3] has the same test system. Briefly: Impedance measurement of TGF–β1–induced myofibroblast transition (IPQA), standard assay. It counts as cell-based. To be noted: 5 ng/ml TGF–β1, compound added with TGF–β1, impedance at t = 20 h post TGF–β1, mean ± SD, read-out: Impedance IC50. Here is the method: (§1) To measure dynamic cell shape and adhesion changes during fibrotic transdifferentiation, NHLF were seeded at a density of 20,000 cells per well in FGM–2 growth medium (Lonza) containing 100 units / ml of penicillin and 100 μg / ml of streptomycin into E–plates with continued impedance signal measurement (xCELLigence system, Roche Applied Science). After overnight growth, the medium was exchanged for FBM (Lonza) supplemented with 100 units / ml of penicillin and 100 μg / ml of streptomycin and 0.1% faf BSA and cells were starved for 32 h. Compound dilution series were added and myofibroblast transition was induced by adding TGF–β1 at a concentration of 5 ng / ml, followed by continued impedance sampling for up to 48 h. For data analysis, impedance raw traces were normalized to the time point of compound addition and the baseline response (DMSO, non–TGF–β1 treated cells) was subtracted. In some cases, impedance values at defined time points were used to generate concentration–response curves to determine compound potency and efficacy using GraphPad Prism software version 7 (GraphPad Software Inc).

Assay [4] concerns α–SMA protein in NHLF cells. Briefly: RapidFire MS/MS quantification of α–SMA (IPQA), standard assay. The following applies: NHLF, 5 ng/ml TGF–β1, lysed 48 h after TGF–β1, normalized to tubulin; mean ± SD; read-out: MS / MS α–SMA IC50. In kind it is cell-based, human. The procedure: (§2) Cell culture medium was removed and cells were lysed on ice by adding 5 μl / well of pre–cooled protein extraction buffer containing 10 mM Tris–HCl (pH 8.0), 6 M urea and 2 M thiourea and shaking on ice on a plate shaker at 600 rpm for 30 min.
(§3) Cell lysate was transferred to a 96–well polypropylene–PCR–plate. 15 μl / well denaturation buffer (6 M urea, 50 mM ammonium bicarbonate) and 2 μl / well of 50 mM TCEP were added and samples were denatured for 1 h at 60°C using the Veriti 96–well Fast Thermal Cycler System (Applied Biosystem) with a heated lid. Plates were allowed to cool to RT. Subsequently, 2 μl of 100 mM iodoacetamide were added per well to derivatize cysteine residues. Plates were then sealed and vortexed for 2 min in the dark and incubated for 30 min at 37°C in a thermal cycler with a heated lid. 90 μl of 50 mM ammonium bicarbonate pH 7.8 were added, followed by the addition of 10 μl of trypsin at 0.02 μg / ml. Samples were trypsin–digested overnight at 37°C in a thermal cycler with heated lid. […] Samples were desalted under vacuum using an Oasis HLB 96–well (30 μm particle size, 5 mg sorbent / well) reverse phase cartridge according to the manufacturer’s instructions and eluted with 170 μl of 90% acetonitrile, 0.1% formic acid. Samples were dried down with a flow of nitrogen at 40°C, left to cool to RT and re–suspended in 40 μl 5% acetonitrile, 0.1% formic acid on a plate shaker set to 1400 rpm for 5 min. Plates were centrifuged at 4,000 rpm for 10 min and 2 times 12 μl / well of supernatant were transferred into separate 96–well plates (Greiner Bio–One), sealed and stored at 4°C until analyzed by MS / MS.
(§4) Surrogate tryptic peptides were chosen for detection of COL1 (COL1A1), α–SMA (ACTA) and tubulin (TBA1A1) and crude synthetic peptides were purchased from Thermo Fischer. After several rounds of optimization following standard workflows, […] (COL1 / COL1A1), […] (α–SMA / ACTA) and […] LC–MS / MS analysis was performed on a RapidFire™ RF360 system (Agilent Technologies) coupled to an API 5500 (ABSciex) with positive ion electrospray ionization. […] Detection was performed using multiple reaction monitoring (MRM) mode to monitor parent⟶product ion transitions (m / z). […] The source parameters were curtain gas (CUR) nitrogen: 20 psig; collision gas (CAD): 7 psig; ion source gas 1: 50.0 psig; ion source gas 2: 50.0 psig; ion spray voltage (IS): 5500 V; turbo heater temperature (TEM): 600°C; entrance potential (EP): 10V. Peak areas for COL1A1 and ACTA were normalized by dividing by TBA1A peak area.

In assay [5] the test system is COL1 protein in NHLF cells. Briefly: RapidFire MS/MS quantification of COL1 (IPQA), standard assay. The following applies: NHLF, 5 ng/ml TGF–β1, lysed 48 h after TGF–β1, normalized to tubulin; mean ± SD; read-out: MS / MS COL1 IC50. In kind it is cell-based, human. The procedure: as §2, §3, §4
Assay [6] has as its system TGF–β1–induced NHLF myofibroblasts. Briefly: cells. In kind it is cell-based. The following applies: reversal assay: 24 h 5 ng/ml TGF–β1, washed, then compound; impedance data at t = 20 h. The procedure: as §1
(§5) To identify compounds with potential to revert differentiated myofibroblasts to fibroblasts the assay procedures were modified. After 24 h starvation, NHLF cells were stimulated with 5 ng / ml TGF–β1 for 24 h. At t = 24 h TGF–β1 was removed and either vehicle (DMSO) or compounds were added and incubated with the cells for a further 72 h.

Assay [7] deals with α–SMA protein in TGF–β1–induced NHLF myofibroblasts. Briefly: MS/MS α–SMA, NHLF myofibroblast reversal assay. In kind it is cell-based, human. To be noted: reversal assay: 24 h 5 ng/ml TGF–β1, washed, 72 h compound; normalized to tubulin; read-out: MS / MS α–SMA IC50. The procedure:
as §2, §3, §4, §5

For assay [8], the system named is COL1 protein in TGF–β1–induced NHLF myofibroblasts. Briefly: MS/MS COL1, NHLF myofibroblast reversal assay. In kind it is cell-based, human. To be noted: reversal assay: 24 h 5 ng/ml TGF–β1, washed, 72 h compound; normalized to tubulin; read-out: MS / MS COL1 IC50. The procedure:
as §2, §3, §4, §5

In assay [9] the test system is rat lung myofibroblasts (RLMyoF). Briefly: Impedance in primary myofibroblasts from fibrotic rat lungs. In kind it is cell-based, Wistar rat. The following applies: S8 Fig.
Protocol: Isolation of fibroblasts from the right middle lung lobe of bleomycin–instilled 20–month old Wistar rats. […] On day 0, rats (n = 3) were anesthetized with isoflurane and instilled intra–tracheally with 315 mg of bleomycin sulfate (Baxter) in a volume of 210 μl followed by 210 μl of air to equally distribute the substance in the lung. On day 28, rats were euthanized using isoflurane (5%), exsanguinated and right lung middle lobes (RML) were collected in a sterile culture dish on ice in Dulbecco's Modified Eagle's Medium (DMEM) / F12 (1:1, Thermo Fisher), minced, washed 3 times with DMEM / F12 medium and digested with 0.1% collagenase (Collagenase II–S: Invitrogen) and 15 μg / ml DNase (DNase I, Sigma) in DMEM / F12 medium in a shaking water bath at 37°C for 15 min. Digests were separated by gravity and the supernatant was transferred to a new vial supplemented with 4 volumes of ice–cold starter medium consisting of DMEM / F12 (1:1), 10% (v / v) fetal bovine serum (PAA), 1% (v / v) penicillin / streptomycin 100 U / 100 μg / ml (Thermo Fisher), and insulin / transferrin / sodium selenite (Thermo Fisher). Then, the cell suspension was passed through a cell strainer by centrifugation at 1600 rpm at 4°C for 10 min. The pelleted cells were resuspended in pre–warmed (37°C) starter medium and seeded in a cell culture dish. After 60 minutes, the medium was replaced by new starter medium. After 24 hours, the medium was exchanged for DMEM / F12 to which 10% (v / v) fetal bovine serum and 1% penicillin / streptomycin was added.

For the molecule `CCn1c(-c2nonc2N)nc2cnc(Oc3cccc(NC(=O)c4ccc(OCCN5CCOCC5)cc4)c3)cc21` [GSK–269962], the IC50 in [1] is 0.24 ± 0.27 µM; in assay [2] it was above 50 µM; in assay [3] it was 1.01 µM; in assay [4] it was 0.022 ± 0.001 µM; in assay [5], 3.1 µM; in [6], above 10 µM. In addition, the IC50 amounted to 0.035 µM in [7]; 0.537 µM in assay [8]; 0.011 µM in assay [9] (read-out: RLMyoF impedance IC50 (3 h), impedance at 3 h); 0.133 µM in assay [9] (read-out: RLMyoF impedance IC50 (20 h), impedance at 20 h).
